Data as given in BigSolDB 2.1.

Cc1ncc(COP(=O)(O)O)c(C=O)c1O.O
solubility (mole fraction)
Details | 278.15 K | 283.15 K | 288.15 K | 293.15 K | 298.15 K | 303.15 K | 308.15 K | 313.15 K | 318.15 K
in acetone | 4.8e-07 | 6.8e-07 | 8.7e-07 | 1.26e-06 | 1.74e-06 | 2.42e-06 | 3.19e-06 | 4.06e-06 | 5.02e-06
in ethanol | 2.81e-06 | 3.12e-06 | 3.5e-06 | 3.95e-06 | 4.18e-06 | 4.86e-06 | 6e-06 | 7.22e-06 | 8.59e-06
in isopropanol | 2.35e-06 | 2.45e-06 | 2.77e-06 | 3.2e-06 | 3.73e-06 | 4.59e-06 | 5.66e-06 | 7.04e-06 | 9.17e-06
in methanol | 4.5e-06 | 5.92e-06 | 8.99e-06 | 1.33e-05 | 1.83e-05 | 2.39e-05 | 3.18e-05 | 4.17e-05 | 5.38e-05
in water | 0.000216 | 0.000247 | 0.000284 | 0.000333 | 0.000388 | 0.000465 | 0.000558 | 0.00066 | 0.000803
